Data on one molecule can be found in paper PMC8282797, “Strictly regulated agonist-dependent activation of AMPA-R is the key characteristic of TAK-653 for robust synaptic responses and cognitive improvement” (Scientific Reports, 2021).

One series has as its system BDNF protein levels. In words: BDNF production in primary neurons. The series is classed as cell-based, rat. The settings on record: 24 h. How it is done: BDNF production in primary neurons was measured as previously described. Primary cultures of hippocampal neuronal cells at a density of 5 × 10^4 cells/well plated on poly-L-lysine coated 96-well plates (Sumitomo Bakelite) were treated with compounds in the presence or absence of AMPA (1 μM) and cultured in a humidified CO2 incubator with 5% CO2 at 37 °C for 24 h. The cells were washed once using phosphate buffered saline and were collected using 60 μL of lysis buffer (20 mM Tris-HCl at pH 8.0, 137 mM NaCl, 10% glycerol, 1% NP-40, 1% protease inhibitor cocktail [Sigma-Aldrich, St. Louis, MO]). Concentrations of BDNF protein were measured using BDNF ELISA Kits (Promega, Fitchburg, WI).
Primary cultures of hippocampal neuronal cells were prepared from fetal Sprague-Dawley rats at 19 days of gestation. Rat embryos were decapitated and their whole brains were isolated. Hippocampi were dissected in ice-cold Hanks' Balanced Salt Solutions (HBSS) under a microscope and then dispersed into cells using a neural cell dispersion kit (Sumitomo Bakelite Co., Ltd., Tokyo, Japan). The dissociated cells were suspended in Neurobasal medium containing B27 supplement (Thermo Fisher Scientific Inc.), 2 mM L-glutamine (Lonza, Basel, Switzerland), 100 U/mL penicillin (Lonza), 100 μg/mL streptomycin (Lonza) and 20 μg/mL gentamicin sulfate (Lonza). […]

A further series concerns poly-I:C mouse. The series can be described thus: Social approach-avoidance test in poly-I:C mouse. The series is classed as in vivo. The settings on record: 0.3 mg/kg, p.o., 1 h prior to test. The protocol:
Poly-I:C (5 mg/kg) dissolved in sterile pyrogen-free 0.9% NaCl (control) solution was administered to pregnant female C57BL/6J mice on gestation day 15 (GD15) via the intravenous route at the tail vein with a volume of 5 ml/kg.
The apparatus was a three-chamber gray acryl box (53 × 19 × 21.5 cm, outer chamber: 19.3 × 19 × 21.5 cm), and dividing walls were made from clear acryl plates with gates. In the two outer chambers, transparent acryl cylinders with small holes (cylinder: 8.2 cm φ × 20.5 cm, hole: 1.3 cm φ) were placed to avoid direct physical interaction between a target animal and a test animal. Target animals were C57BL/6 J mice of the same age as test animals and no previous contact with them. On the test day, TAK-653 (0.3 mg/kg, p.o.) or vehicle was administered 1 h before the testing session. Each test animal was introduced in the middle chamber of test apparatus for 3 min with the gates being closed by partitions. Then the partitions were removed gently for the test animal to explore all three chambers freely for 5 min. Sniffing index was calculated as the index of sociability using the following equation:
Sniffing index = (Sniffing time to cylinder containing target mouse (s) − Sniffing time to empty cylinder (s))/ (Total sniffing time (s)).

Another series deals with rats. In words: Exposure margin against seizure after acute treatment. It is filed as in vivo, rat. The following applies: NOR improvement versus absence of seizure signs. The protocol: Thus, we decided to calculate the exposure safety margins of AMPA-R potentiators based on the cognitive improvement in the NOR test and the absence of signs of seizures. […] Thus, TAK-653 may have a wider exposure margin than LY451646 in rats.
The data were extracted from the studies conducted in accordance with the Good Laboratory Practice Regulation. […] The dose levels in the first study and second study were set at "100, 15 and 5 mg/kg, p.o." and "50, 15 and 5 mg/kg, p.o.", respectively. The dosing suspensions were administered into the stomach via a catheter in the morning at the dose volume of 5 mL/kg. Cage side observations to confirm tonic or […] convulsions were conducted before and at 1, 2, 4, 8 and 24 h after dosing in the first study and before and at 1, 4 and 24 h after dosing in the second study.
The Sprague–Dawley rats treated with orally administered TAK-653 were decapitated at each time point, and trunk blood was collected into 1.5-mL centrifuge tubes. Plasma was separated from the blood samples by centrifugation. The concentrations of TAK-653 in the plasma were determined using liquid chromatography/tandem mass spectrometry (LC/MS/MS).

On to `CC1=CN2CCS(=O)(=O)N=C2C(c2ccc(OC3CCCCC3)cc2)=N1` [TAK-653, 9-[4-(Cyclohexyloxy)phenyl]-7-methyl-3,4-dihydropyrazino[2,1-c][1,2,4]thiadiazine 2,2-dioxide], for which the BDNF protein levels result in the series with BDNF protein levels (compound alone at 1 μM) was “slightly increased”. Also, the BDNF protein levels result with BDNF protein levels (in the presence of AMPA (1 μM)) was “robustly increased”. In the series with poly-I:C mouse, the Sniffing index result is “significantly improved”. Moreover, in the series with rats, the “Margin based on AUCplasma” value was 1017 fold and the “Margin based on plasma Cmax” value turned out to be 419 fold.
